Reference: US20250034186A1, “ANTIVIRAL COMPOUNDS” (priority 2020, published 2025)

How the values were obtained:
[1] = system: HRV14; experiment: HRV14 HeLa EC50; assay type: cell-based, human rhinovirus; conditions: for EC50: Human rhinovirus sp., HRV14, H1-HeLa cells, 96 h, 37° C.
Protocol: H1-HeLa cells, cultured in complete RPMI 1640 medium containing 10% heat-inactivated FBS and 1% Penicillin/Streptomycin, were seeded in 96 well plates at 5000 cells/well one day prior to compound dosing and infection. The antiviral activity of each compound was measured in triplicate. Compounds were added directly to the cell cultures in serial 3-fold dilutions using the HP300 digital dispenser (Hewlett Packard, Palo Alto, CA) immediately prior to infection. The plates were transferred to BSL-2 containment and 100 μL of 1/4000 dilution of HRV14 virus stock was added to each well containing cells and serially diluted compounds. Each plate included 6 wells of infected untreated cells and 6 wells of cells containing 5 μM Rupintrivir that served as 0% and 100% virus inhibition control, respectively. Following the infection, test plates were incubated for 96 h in a tissue culture incubator set to 37° C./5% CO2. Following incubation, the H1-HeLa cells were removed from incubation and allowed to equilibrate to 25° C. Cell viability was determined by removing 100 μL of culture medium and adding 100 μL of Cell-Titer Glo viability reagent. The mixtures were incubated on a shaker for 10 minutes at 25° C., and the luminescence signal was quantified on an Envision luminescence plate reader.

[2] = NHBE cytotoxicity assay; assay type: cell-based; conditions: human, normal bronchial epithelial (NHBE) cells
Protocol: Normal human bronchial epithelial (NHBE) cells were purchased from Lonza (Walkersville, MD, Cat #CC-2540) and cultured in Bronchial Epithelial Growth Media (BEGM) (Lonza, Walkersville, MD, Cat #CC-3170). The cells were passaged 1-2 times per week to maintain <80% confluency per manufacturer's protocol. The NHBE cells were discarded after 5 passages in culture.
(§1) Following attachment, 3-fold serially diluted compound was added using a Hewlett-Packard D300 Digital Dispenser (Hewlett Packard, Palo Alto, CA) in triplicate. The final concentration of DMSO was normalized to 1.0%. Following compound addition, NHBE or SAEC cells were incubated at 37° C. for 5 days. The NHBE or SAEC cells were then allowed to equilibrate to 25° C. and cell viability was determined by removing 100 μL of culture medium and adding 100 μL of Cell-Titer Glo viability reagent (Promega, Madison, WI). The mixtures were incubated for 10 minutes at 25° C., and the luminescence signal was quantified on an Envision luminescence plate reader (PerkinElmer, Waltham, MA). Percent viability values were determined by normalization to 1.0% DMSO-only control wells with background luminescent signal subtracted out.

[3] = SAEC cytotoxicity assay; assay type: cell-based; conditions: human, small airway epithelial cells (SAEC)
Protocol: Human Small Airway Epithelial cells (SAEC) were purchased from Lonza (Walkersville, MD, Cat #CC-2547) and cultured in supplemented Small Airway Epithelial Cell Growth Medium (SAGM) (lonza, Walkersville, MD, Cat #CC-3118). The cells were passaged 1-2 times per week to maintain <80% confluency per manufacturer's protocol. The SAEC cells were discarded after 5 passages in culture.
as §1

[4] = in vitro; assay type: cell-based; conditions: human, read-out: CC50 GALHEPG2
Protocol: The compound of Formula I and compounds 1, 2 and 6 were tested in a high-throughput 384-well assay format for cytotoxicity in galactose-adapted HepG2 cells (human liver carcinoma cell line).
Cells were diluted in media (DMEM (11966), 10% FBS, 1% NEAA, 0.2% Galactose, 1% Pyruvate, 1% Glutamax, 1% PSG) to 16.6K cells/mL and plated at 90 uL/well into 384 well poly-D-lysine coated assay plates and placed in an incubator at 37° C. and 5% CO2. Compounds were serially diluted (1:3) in 100% DMSO in 384-well plates in quadruplicate. DMSO and 2 mM Puromycin were included as negative and positive controls respectively. 24 hours after cell plating, a 384 channel pipettor was used to transfer 0.4 uL from the compound plate to the assay plate. Assay plates were returned to the incubator. After 5 days, assay plates were washed with 80 uL/well of PBS before addition of 20 μL of Cell Titer Glo. Assay plates were read on the Envision plate reader. […] CC50 values were calculated in Accord (on-line tool) using a one-site dose-response model to generate sigmoidal curve fits.

[5] = PRPT cytotoxicity assay; assay type: cell-based; conditions: human, primary renal proximal tubule epithelial cells (PRPTEC); 5-day incubation
Protocol: The PRPT cytotoxicity assays on the compound of Formula I and compounds 1, 2 and 6 were conducted using the following protocol.
Cryopreserved human primary renal proximal tubule epithelial cells (PRPTEC), were obtained from LifeLine Cell Technology (Frederick, MD, Cat #FC-0013) and isolated from the tissue of human kidney. The cells were cultured with RenaLife completed medium (LifeLine, Frederick, MD, Cat #LL-0025) in T75 flask for 3 to 4 days from cryopreserved vial, before the cells were seeded to assay plates after 90% confluence. PRPTEC cells were plated at a density of 5×10^3 cells per well in collagen coated 96-well plate with a final volume of […] per well. On next day, the compound was added to cell plates directly using HP D300 Dispenser (Hewlett-Packard, Palo Alto, CA) with program starting at 200 fold lower than the compound stock concentration, and 1:3 fold dilution in duplicates with constant amount of DMSO equal to 0.5%. After 5-day incubation, culture medium was removed, cell viability was measured by addition of […] per well of CellTiter Glo viability reagent (Promega, Madison, WI, Cat #G7573) and the luminescence signal was quantified on a Luminescence plate reader (Perkin-Elmer, Waltham, MA).

[6] = Stability assay in cynomolgus monkey hepatic S9 fractions; assay type: in vitro ADME; conditions: 37° C., NADPH and UDPGA, read-out: Cyno HepS9 t1/2
Protocol: For S9 stability, the compounds were incubated at 2 μM in cynomolgus monkey or human hepatic S9 fractions for up to 90 min at 37° C. in the presence of NADPH and UDPGA (Phase I and Phase II cofactor, Sigma-Aldrich). At desired time points following compound addition, samples were quenched with 9 volumes of an aqueous solution containing internal standard, 50% acetonitrile and 25% methanol. Sample plates were centrifuged at 3000 g for 30 min, and 10 μL of the resulting solution was analyzed by LC-MS/MS. Data (analyte to internal standard peak area ratio) were plotted on a semi log scale and fitted using an exponential fit. The half-life (T1/2) was determined assuming first order kinetics.

Row | SMILES | times more potent relative to compound 1, HRV14 HeLa ([1]; EC50 ratio vs compound 1) [times] | times more potent compared to compound 2, HRV14 HeLa ([1]; EC50 ratio vs compound 2) | times more potent relative to compound 3, HRV14 HeLa ([1]; EC50 ratio vs compound 3) | times more potent relative to compound 5, HRV14 HeLa ([1]; EC50 ratio vs compound 5) | EC50 [1] [µM] | CC50 at 5 days [2] [µM] | CC50 at 5 days [3] [µM] | CC50 at 5 days [4] [µM] | CC50 at 5 days [5] [µM] | half-life at 2 μM [6] [min]
1 | C[C@H](N[P@](=O)(OC[C@@]1(C#N)O[C@@H](c2ccc3c(N)ncnn23)[C@H](O)[C@@H]1O)Oc1ccccc1)C(=O)OC1CCCCC1 [Formula I, cyclohexyl ((S)-(((2R,3S,4R,5S)-5-(4-aminopyrrolo[2,1-f][1,2,4]triazin-7-yl)-2-cyano-3,4-dihydroxytetrahydrofuran-2-yl)methoxy)(phenoxy)phosphoryl)-L-alaninate] | ~12.8 | about 2.2 times | about 23.2 times | about 44.0 times | 0.078 | > 40.1 | 123 | > 88.9 | > 84.4 | 26
2 | CCC(CC)COC(=O)[C@H](C)N[P@](=O)(OC[C@@]1(C#N)O[C@@H](c2ccc3c(N)ncnn23)[C@H](O)[C@@H]1O)Oc1ccccc1 [Compound 6, 2-ethylbutyl ((S)-(((2R,3S,4R,5S)-5-(4-aminopyrrolo[2,1-f][1,2,4]triazin-7-yl)-2-cyano-3,4-dihydroxytetrahydrofuran-2-yl)methoxy)(phenoxy)phosphoryl)alaninate] | – | – | – | – | – | 24.4 | 27.2 | > 88.9 | 42.3 | 2
3 | CCOC(=O)[C@H](C)NP(=O)(OC[C@@]1(C#N)O[C@@H](c2ccc3c(N)ncnn23)[C@H](O)[C@@H]1O)Oc1ccccc1 (stereo partly drawn) [Compound 1, reference compound] | – | – | – | – | 1 | > 50 | – | > 44.4 | – | –
4 | CCC(CC)COC(=O)[C@H](C)NP(=O)(OC[C@@]1(C#N)O[C@@H](c2ccc3c(N)ncnn23)[C@H](O)[C@@H]1O)Oc1ccccc1 (stereo partly drawn) [Compound 2, reference compound] | – | – | – | – | 0.171 | 29.1 | 28.3 | > 44.4 | 23.8 | 3
